Laboratory results as given in publication PMC6881293, “Nanomolar-potency ‘co-potentiator’ therapy for cystic fibrosis caused by a defined subset of minimal function CFTR mutants” (Scientific Reports, 2019).
Values belong to the compound of their own block, whether it stands above or below them.

What was measured:
[1] = target: T1, N1303K-CFTR (Homo sapiens, UniProt P13569, N1303K); assay: Short-circuit current in FRT cells expressing N1303K-CFTR; assay type: cell-based
T1 construct: expressed in transfected cells
Protocol: Based on prior studies[10],[11],[20], we hypothesized that distinct binding sites may be required to bind a potentiator and co-potentiator to rescue channel activity of CFTR mutants. We defined the potentiator VX-770 as a Class I compound, and co-potentiator ASP-11 as a Class II compound (Fig. 3A,D). Short-circuit current measurements in N1303K-CFTR-expressing FRT cells confirmed synergy when ASP-11 was added after VX-770 (Fig. 3Bi). […] In each experiment, CFTRinh-172 confirmed that current was from CFTR.
Figure 3 Definition of Class I and II CFTR potentiators. (A) Chemical structures of Class I and II potentiators. (B) Short-circuit current in FRT cells expressing N1303K-CFTR in response to forskolin and indicated potentiators. Concentrations: 20 μM forskolin, 5 μM VX-770, 20 μM ASP-11, 20 μM GLPG1837, 20 μM P2, 20 μM P3, 20 μM P5, 20 μM W1282Xpot-C01, and 10 μM CFTRinh-172. C. Short-circuit current in FRT cells expressing Q1313X-CFTR in response to forskolin and indicated potentiators. Concentrations: as in panel B, and 25 μM apigenin. (D) Summary of relative N1303K-CFTR activation in response to combinations of Class I and Class II potentiators. Mean ± S.E.M., n = 3. TEXT PRINTED IN THE PICTURE: (D) VX-770: N1303K-CFTR: P5: 1% ±1%; N1303K-CFTR: GLPG 1837: 10% ±5%; N1303K-CFTR: ASP-11: 100% ±3%; N1303K-CFTR: apigenin: 100% ±5% | (D) P5: N1303K-CFTR: VX-770: 1% ±1%; N1303K-CFTR: GLPG 1837: 2% ±2%; N1303K-CFTR: ASP-11: 52% ±5%; N1303K-CFTR: apigenin: 56% ±5% | (D) GLPG 1837: N1303K-CFTR: VX-770: 0% ±5%; N1303K-CFTR: P5: 2% ±2%; N1303K-CFTR: ASP-11: 100% ±4%; N1303K-CFTR: apigenin: 98% ±5% | (D) ASP-11: N1303K-CFTR: VX-770: 100% ±3%; N1303K-CFTR: P5: 47% ±4%; N1303K-CFTR: GLPG 1837: 100% ±5%; N1303K-CFTR: apigenin: 7% ±3% | (D) apigenin: N1303K-CFTR: VX-770: 100% ±5%; N1303K-CFTR: P5: 50% ±5%; N1303K-CFTR: GLPG 1837: 100% ±5%; N1303K-CFTR: ASP-11: 5% ±2% DOUBTS OF THE COPYIST ABOUT THIS PICTURE: Panel D is a matrix of pairs of substances (row substance combined with column substance). The picture prints no name for the measure, only % values and a 0%–100% colour scale. / The print in panel D is small, so 3, 5, 6 and 8 are hard to tell apart in these values. / VX-770 / GLPG 1837: ±5% could be ±3% / VX-770 / ASP-11: ±3% could be ±5% / VX-770 / apigenin: ±5% could be ±3% / P5 / ASP-11: 52% ±5%, digits uncertain / P5 / apigenin: 56% could be 58%, and ±5% is uncertain / GLPG 1837 / VX-770: 0% ±5%, error digit uncertain / GLPG 1837 / apigenin: 98% could be 96%, and ±5% is uncertain / ASP-11 / VX-770: ±3% could be ±5% / ASP-11 / GLPG 1837: ±5% could be ±3% / ASP-11 / apigenin: 7% ±3%, error digit uncertain / apigenin / VX-770: ±5% could be ±3% / apigenin / P5: 50% ±5%, digits uncertain / apigenin / GLPG 1837: ±5% could be ±3% / apigenin / ASP-11: 5% ±2%, the 5 is uncertain
(§1) Figures 5C,D show data in N1303K- and Q1313X-expressing FRT cells.
(§2) Short-circuit current was measured on cells cultured on Snapwell clear permeable supports (Corning) as described[10],[11]. Hemichambers were connected to a DVC-1000 voltage clamp (World Precision Instruments Inc., Sarasota, FL) via Ag/AgCl electrodes and 3 M KCl agar bridges for recording of the short-circuit current. For human airway epithelial cells, symmetrical HCO3^−-buffered solutions (in mM: 120 NaCl, 5 KCl, 1 MgCl2, 1 CaCl2, 5 Hepes, 25 NaHCO3, 10 glucose, pH 7.4) for basolateral and apical side were used. For FRT cells, the basolateral membrane was permeabilized with 250 μg/ml amphotericin B, and experiments were done with a chloride gradient using a HCO3^−-buffered solutions (Basolateral (mM): 120 NaCl, 5 KCl, 1 MgCl2, 1 CaCl2, 5 Hepes, 25 NaHCO3, 10 glucose, pH 7.4; apical (mM): 60 NaCl, 60 mM sodium gluconate, 5 KCl, 1 MgCl2, 1 CaCl2, 5 Hepes, 25 NaHCO3, 10 glucose, pH 7.4). All cells were equilibrated with 95% O2, 5% CO2 and maintained at 37 °C during experiments.

[2] = target: T2, Q1313X-CFTR (Homo sapiens, UniProt P13569); assay: Short-circuit current in FRT cells expressing Q1313X-CFTR; assay type: cell-based
T2 construct: expressed in transfected cells
Protocol: As shown in Fig. 1C and summarized in Fig. 2, ASP-11 acted in synergy with VX-770 to increase chloride current in FRT cells expressing the NBD2 mutations I1234del- and Q1313X-CFTR by ~3–9-fold compared to VX-770. I1234del- and Q1313X-CFTR-expressing cells were also treated with VX-809 for 24 hours (to consider the effect of available CFTR therapeutics) with 2–3-fold greater currents observed.
Studies on FRT cells expressing Q1313X-CFTR produced similar data (Fig. 3C).
as §1, §2

T2 sequence (P13569 1-1312 limits assumed): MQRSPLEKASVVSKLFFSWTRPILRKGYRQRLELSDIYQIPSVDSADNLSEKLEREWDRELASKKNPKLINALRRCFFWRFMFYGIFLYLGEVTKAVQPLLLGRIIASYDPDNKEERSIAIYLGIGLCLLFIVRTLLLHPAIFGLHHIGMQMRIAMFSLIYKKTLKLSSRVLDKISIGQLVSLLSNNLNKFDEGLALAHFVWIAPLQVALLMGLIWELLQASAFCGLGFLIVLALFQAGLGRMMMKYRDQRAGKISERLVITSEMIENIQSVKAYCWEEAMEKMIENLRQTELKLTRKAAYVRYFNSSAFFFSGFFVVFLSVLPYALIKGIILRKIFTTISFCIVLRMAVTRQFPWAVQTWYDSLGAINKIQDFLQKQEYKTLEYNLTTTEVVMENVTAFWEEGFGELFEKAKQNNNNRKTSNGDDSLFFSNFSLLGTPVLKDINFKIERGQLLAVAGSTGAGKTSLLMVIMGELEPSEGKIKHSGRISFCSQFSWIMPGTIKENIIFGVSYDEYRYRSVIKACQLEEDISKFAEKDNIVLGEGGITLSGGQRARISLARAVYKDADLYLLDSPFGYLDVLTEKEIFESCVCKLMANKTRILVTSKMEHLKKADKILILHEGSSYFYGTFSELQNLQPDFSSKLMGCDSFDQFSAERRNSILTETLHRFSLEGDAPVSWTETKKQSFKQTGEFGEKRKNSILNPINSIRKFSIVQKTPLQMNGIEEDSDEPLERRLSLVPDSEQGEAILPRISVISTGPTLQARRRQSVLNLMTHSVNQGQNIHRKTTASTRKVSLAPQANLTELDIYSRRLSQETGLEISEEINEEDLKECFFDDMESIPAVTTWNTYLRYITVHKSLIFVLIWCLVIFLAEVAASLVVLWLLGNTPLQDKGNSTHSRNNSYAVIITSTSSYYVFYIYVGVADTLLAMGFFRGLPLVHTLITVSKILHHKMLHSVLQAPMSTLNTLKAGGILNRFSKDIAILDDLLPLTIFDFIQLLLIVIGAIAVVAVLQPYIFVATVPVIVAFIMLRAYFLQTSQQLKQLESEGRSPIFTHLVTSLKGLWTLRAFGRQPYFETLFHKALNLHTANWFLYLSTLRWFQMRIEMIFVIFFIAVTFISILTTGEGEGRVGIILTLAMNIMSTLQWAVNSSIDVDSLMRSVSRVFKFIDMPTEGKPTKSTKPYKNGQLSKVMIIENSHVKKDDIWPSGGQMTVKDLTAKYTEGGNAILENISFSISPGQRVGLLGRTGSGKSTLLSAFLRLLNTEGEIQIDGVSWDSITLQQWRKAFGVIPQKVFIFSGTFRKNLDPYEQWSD
T1 sequence (P13569 whole entry N1303K): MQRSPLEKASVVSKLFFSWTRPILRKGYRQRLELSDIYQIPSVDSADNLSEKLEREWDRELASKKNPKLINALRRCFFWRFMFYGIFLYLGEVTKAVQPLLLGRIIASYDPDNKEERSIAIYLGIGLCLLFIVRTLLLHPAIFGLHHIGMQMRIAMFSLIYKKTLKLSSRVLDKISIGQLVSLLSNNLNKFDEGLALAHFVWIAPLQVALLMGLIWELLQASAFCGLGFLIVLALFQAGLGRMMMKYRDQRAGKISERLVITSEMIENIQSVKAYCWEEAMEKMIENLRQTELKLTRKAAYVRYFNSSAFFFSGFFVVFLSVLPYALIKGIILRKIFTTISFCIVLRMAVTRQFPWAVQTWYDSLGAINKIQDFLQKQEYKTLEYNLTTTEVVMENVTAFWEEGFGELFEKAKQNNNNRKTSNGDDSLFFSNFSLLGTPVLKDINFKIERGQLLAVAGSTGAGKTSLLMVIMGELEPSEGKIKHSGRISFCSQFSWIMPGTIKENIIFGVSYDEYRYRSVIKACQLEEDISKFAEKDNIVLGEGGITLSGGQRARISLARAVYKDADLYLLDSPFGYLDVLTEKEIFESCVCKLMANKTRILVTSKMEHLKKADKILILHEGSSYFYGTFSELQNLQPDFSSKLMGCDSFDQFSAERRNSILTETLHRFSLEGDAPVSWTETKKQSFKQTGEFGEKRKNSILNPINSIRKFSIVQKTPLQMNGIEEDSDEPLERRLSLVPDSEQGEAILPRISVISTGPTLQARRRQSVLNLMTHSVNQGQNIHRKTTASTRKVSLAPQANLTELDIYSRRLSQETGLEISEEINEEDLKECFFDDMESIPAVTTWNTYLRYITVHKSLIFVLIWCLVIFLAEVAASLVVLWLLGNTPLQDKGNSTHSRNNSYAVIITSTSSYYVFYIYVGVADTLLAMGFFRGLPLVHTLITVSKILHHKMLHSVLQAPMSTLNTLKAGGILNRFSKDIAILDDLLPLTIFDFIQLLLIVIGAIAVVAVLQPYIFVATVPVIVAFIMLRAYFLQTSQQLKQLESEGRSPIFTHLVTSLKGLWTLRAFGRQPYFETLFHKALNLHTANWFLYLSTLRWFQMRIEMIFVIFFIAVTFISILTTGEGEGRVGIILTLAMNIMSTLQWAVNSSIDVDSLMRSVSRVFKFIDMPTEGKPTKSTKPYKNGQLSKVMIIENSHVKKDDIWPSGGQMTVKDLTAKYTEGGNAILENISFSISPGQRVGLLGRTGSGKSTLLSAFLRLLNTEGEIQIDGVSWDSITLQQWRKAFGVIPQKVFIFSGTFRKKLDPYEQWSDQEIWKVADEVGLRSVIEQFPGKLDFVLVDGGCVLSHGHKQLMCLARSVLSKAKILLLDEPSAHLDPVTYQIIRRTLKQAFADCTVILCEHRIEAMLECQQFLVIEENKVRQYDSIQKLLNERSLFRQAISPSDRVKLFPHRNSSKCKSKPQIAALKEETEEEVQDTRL

- short-circuit current response when added after GLPG1837 ([1]; N1303K-CFTR FRT cells, 20 μM forskolin, 20 μM GLPG1837): mildly reduced current
- short-circuit current response when added after GLPG1837 ([2]; Q1313X-CFTR FRT cells, 20 μM forskolin, 20 μM GLPG1837): reduced current
Compound: CC(C)(C)c1cc(C(C)(C)C)c(NC(=O)c2c[nH]c3ccccc3c2=O)cc1O [VX-770, ivacaftor]

- activation by two Class II potentiators added together ([1]; N1303K-CFTR FRT cells, 20 μM W1282Xpot-C01 and 20 μM ASP-11, no Class I potentiator): little activation
- short-circuit current response when added after VX-770 ([1]; N1303K-CFTR FRT cells, 20 μM forskolin, 5 μM VX-770, then 20 μM compound): synergy
- increase in chloride current with ASP-11 plus VX-770 compared to VX-770 alone ([2]; Q1313X-CFTR FRT cells, 20 µM forskolin, 5 µM VX-770, 20 µM ASP-11, range stated jointly for I1234del- and Q1313X-CFTR): 3–9 fold
Compound: CCCCn1cc(S(=O)(=O)Nc2ccc(CC)cc2)c2cccnc21 [ASP-11]

Compound: COc1ccc2[nH]c3c(c2c1)CCNC31CCN(Cc2ccc(F)cc2F)CC1 [Compound A061]
- EC50 ([1]; FRT cells expressing N1303K-CFTR, after 20 µM forskolin and 5 µM VX-770): 2.9 µM
- EC50 ([2]; FRT cells expressing Q1313X-CFTR, after 20 µM forskolin and 5 µM VX-770): 5 µM
